Test results: article PMC8706783 (Pharmaceutics, 2021)

Assays:
CYP2B6 = biological target: T1, CYP2B6 (Homo sapiens, UniProt P20813); experiment: Enzyme inhibition assay, CYP2B6; type: in vitro ADME
T1 construct: tissue Xenotech LLC; host or cells: human liver microsomes, mixed-gender 50 donor pool

CYP2C19 = CYP2C19 (Homo sapiens, UniProt P33261); experiment: Enzyme inhibition assay, CYP2C19
UGT1A6 = biological target: T2, UGT1A6 (Homo sapiens, UniProt P19224); experiment: Enzyme inhibition assay, UGT1A6; type: in vitro ADME; settings: Recombinant UGT1A6; 4-methylumbelliferone O-glucuronidation
T2 sequence (P19224 27-532): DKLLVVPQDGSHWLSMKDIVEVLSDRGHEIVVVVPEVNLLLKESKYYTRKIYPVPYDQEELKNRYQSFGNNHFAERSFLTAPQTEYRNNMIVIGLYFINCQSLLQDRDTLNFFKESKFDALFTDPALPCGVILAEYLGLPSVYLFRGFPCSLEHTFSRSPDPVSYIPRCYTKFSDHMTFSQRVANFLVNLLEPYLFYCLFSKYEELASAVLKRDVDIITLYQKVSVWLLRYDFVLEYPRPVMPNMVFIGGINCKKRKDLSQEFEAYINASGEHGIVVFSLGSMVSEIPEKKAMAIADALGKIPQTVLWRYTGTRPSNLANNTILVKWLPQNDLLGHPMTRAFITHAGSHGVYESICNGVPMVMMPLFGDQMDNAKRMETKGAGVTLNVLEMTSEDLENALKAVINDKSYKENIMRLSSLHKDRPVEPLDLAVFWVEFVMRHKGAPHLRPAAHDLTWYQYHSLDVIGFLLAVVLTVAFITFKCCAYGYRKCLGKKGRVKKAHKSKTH

HLM (Phase 1) = experiment: Reaction phenotyping, HLM with NADPH; type: in vitro ADME, human
CYP1A2 mRNA = system: CYP1A2 mRNA; parameters: method as in PMID 23965226; settings: 10 μM DPV, colorectal tissue from three human donors; cited from earlier work
CYP1A1 = biological target: T3, CYP1A1 (Homo sapiens, UniProt P04798); experiment: Enzyme inhibition assay, CYP1A1; type: in vitro ADME; parameters: purchased Xenotech LLC; settings: Recombinant CYP1A1; phenacetin-O-deethylation
T3 sequence (P04798 1-512): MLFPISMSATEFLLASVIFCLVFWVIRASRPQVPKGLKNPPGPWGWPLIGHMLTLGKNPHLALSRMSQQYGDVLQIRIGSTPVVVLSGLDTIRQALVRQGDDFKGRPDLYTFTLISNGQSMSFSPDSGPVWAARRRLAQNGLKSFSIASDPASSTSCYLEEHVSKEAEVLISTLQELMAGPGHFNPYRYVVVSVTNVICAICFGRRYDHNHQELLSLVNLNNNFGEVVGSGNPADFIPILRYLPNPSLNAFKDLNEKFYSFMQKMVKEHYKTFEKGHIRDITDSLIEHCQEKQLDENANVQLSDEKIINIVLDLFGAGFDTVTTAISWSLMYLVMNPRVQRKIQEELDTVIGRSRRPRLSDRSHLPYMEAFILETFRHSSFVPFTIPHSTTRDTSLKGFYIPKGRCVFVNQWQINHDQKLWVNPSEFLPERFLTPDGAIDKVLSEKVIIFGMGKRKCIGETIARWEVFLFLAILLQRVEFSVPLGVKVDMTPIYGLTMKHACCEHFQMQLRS

UGT1A9 = biological target: T4, UGT1A9 (Homo sapiens, UniProt O60656); experiment: Enzyme inhibition assay, UGT1A9; type: in vitro ADME; parameters: from tissue; settings: HLM; UGT1A9 mycophenolic acid glucuronidation
T4 sequence (O60656 26-530): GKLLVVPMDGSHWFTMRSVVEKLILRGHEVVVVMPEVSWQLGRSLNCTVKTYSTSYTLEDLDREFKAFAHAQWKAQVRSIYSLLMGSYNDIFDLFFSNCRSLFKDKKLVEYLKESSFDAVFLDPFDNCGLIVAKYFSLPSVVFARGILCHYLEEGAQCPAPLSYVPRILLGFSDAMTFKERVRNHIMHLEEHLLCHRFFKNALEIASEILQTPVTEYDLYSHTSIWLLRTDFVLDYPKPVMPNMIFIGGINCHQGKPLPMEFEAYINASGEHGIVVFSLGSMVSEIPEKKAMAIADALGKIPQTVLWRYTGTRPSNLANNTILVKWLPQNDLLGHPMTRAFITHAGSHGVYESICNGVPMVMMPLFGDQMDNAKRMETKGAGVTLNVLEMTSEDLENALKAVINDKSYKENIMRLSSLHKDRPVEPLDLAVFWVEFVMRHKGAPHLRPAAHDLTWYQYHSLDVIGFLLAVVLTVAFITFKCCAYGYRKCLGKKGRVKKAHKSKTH

CYP1A2 = biological target: T5, CYP1A2 (Homo sapiens, UniProt P05177); experiment: Enzyme inhibition assay, CYP1A2
T5 sequence (P05177 1-516): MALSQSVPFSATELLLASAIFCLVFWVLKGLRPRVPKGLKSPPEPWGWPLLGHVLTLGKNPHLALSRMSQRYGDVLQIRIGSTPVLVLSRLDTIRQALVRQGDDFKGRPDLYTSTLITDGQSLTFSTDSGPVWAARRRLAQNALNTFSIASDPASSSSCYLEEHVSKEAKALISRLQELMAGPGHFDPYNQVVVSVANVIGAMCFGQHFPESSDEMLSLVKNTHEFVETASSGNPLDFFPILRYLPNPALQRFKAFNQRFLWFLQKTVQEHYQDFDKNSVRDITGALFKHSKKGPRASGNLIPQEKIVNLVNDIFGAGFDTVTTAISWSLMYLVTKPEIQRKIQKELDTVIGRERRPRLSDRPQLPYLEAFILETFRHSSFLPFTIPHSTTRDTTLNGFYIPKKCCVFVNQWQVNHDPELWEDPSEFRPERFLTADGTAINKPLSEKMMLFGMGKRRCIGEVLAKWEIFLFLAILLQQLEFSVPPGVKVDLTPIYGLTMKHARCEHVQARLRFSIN

Sequence of CYP2C19 (P33261 whole entry): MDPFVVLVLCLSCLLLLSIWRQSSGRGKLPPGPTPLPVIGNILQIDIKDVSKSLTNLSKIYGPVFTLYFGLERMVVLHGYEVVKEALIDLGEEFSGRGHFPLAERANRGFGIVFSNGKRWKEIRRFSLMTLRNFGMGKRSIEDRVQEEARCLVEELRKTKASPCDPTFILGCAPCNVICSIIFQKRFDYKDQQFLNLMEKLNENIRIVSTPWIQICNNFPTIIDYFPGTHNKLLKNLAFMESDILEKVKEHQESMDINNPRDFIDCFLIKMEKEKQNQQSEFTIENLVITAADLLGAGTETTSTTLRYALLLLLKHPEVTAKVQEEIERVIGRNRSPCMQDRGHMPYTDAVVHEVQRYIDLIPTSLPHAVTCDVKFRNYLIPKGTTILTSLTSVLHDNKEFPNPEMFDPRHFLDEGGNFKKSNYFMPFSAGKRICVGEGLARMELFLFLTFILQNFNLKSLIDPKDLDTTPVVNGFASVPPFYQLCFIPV
T1 sequence (P20813 whole entry): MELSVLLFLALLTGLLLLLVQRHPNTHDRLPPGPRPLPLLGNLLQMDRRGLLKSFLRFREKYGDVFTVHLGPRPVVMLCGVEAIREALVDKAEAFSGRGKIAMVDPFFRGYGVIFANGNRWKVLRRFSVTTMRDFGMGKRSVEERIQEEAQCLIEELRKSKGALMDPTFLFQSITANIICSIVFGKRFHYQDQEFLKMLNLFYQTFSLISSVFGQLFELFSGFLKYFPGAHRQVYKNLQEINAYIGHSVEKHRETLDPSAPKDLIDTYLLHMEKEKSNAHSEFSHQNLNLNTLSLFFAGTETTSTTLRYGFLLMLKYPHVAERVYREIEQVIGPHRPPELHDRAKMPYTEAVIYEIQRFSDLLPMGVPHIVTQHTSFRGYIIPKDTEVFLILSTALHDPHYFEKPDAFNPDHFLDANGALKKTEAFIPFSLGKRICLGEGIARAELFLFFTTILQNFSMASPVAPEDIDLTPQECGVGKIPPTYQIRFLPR

Compound: Cc1cc(C)c(Nc2ccnc(Nc3ccc(C#N)cc3)n2)c(C)c1 [DPV, Dapivirine]
- IC50 (CYP2B6): 10.1 µM
- IC50 (CYP2C19): > 30 µM
- IC50 (UGT1A6): 19.6 µM
- % DPV Remaining at 60 min without MIC (HLM (Phase 1); 10 μM DPV): 37.14%
- % DPV Remaining at 60 min with MIC (HLM (Phase 1); 10 μM DPV and 30 μM MIC): 88.39%
- CYP1A2 mRNA change (CYP1A2 mRNA): induction in one donor
- IC50 (CYP1A1): 0.5 µM
- IC50 (UGT1A9): > 30 µM
- IC50 (CYP1A2): 10.5 µM

Compound: Clc1ccc(COC(Cn2ccnc2)c2ccc(Cl)cc2Cl)c(Cl)c1 (stereo not shown) [MIC, miconazole]
- IC50 (UGT1A6): 17.1 µM
- IC50 (CYP1A1): 0.43 µM
- IC50 (UGT1A9): > 30 µM
- IC50 (CYP1A2): 5.11 µM
